As a reminder, the IC50 is the point on the concentration scale where inhibition reaches its midpoint. Read a high IC50 as weaker potency. In general, inhibition refers to the relative decrease from the control value, in per cent.

The record followed here is PMC8976160 (Drug Design, Development and Therapy, 2022).

The experiment deals with T1, human Glx-I enzyme (Homo sapiens, UniProt Q04760).
T1 sequence (Q04760 2-184 limits assumed): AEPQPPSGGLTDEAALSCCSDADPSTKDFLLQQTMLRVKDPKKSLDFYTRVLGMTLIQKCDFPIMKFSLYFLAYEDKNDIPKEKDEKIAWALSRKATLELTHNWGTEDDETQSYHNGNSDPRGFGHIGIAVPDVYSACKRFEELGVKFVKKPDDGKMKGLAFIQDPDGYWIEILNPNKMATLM
In words: Glx-I inhibitory activity in vitro. The settings on record: for inhibition at 25 µM: read-out: % Inhibition at 25 μM. It is filed as biochemical.

For `Nc1ccc(/N=N/c2ccc(S(N)(=O)=O)cc2)c2cc(O)ccc12` [Compound 13, (E)-4-((4-amino-7-hydroxynaphthalen-1-yl)diazenyl)benzenesulfonamide], the IC50 was 39.1 ± 5.31 µM and the inhibition at 25 µM stood at 46.2%.

For the molecule `NS(=O)(=O)c1ccc(/N=N/c2ccc(O)c(C(=O)O)c2)cc1` [Compound 26, (E)-2-hydroxy-5-((4-sulfamoylphenyl)diazenyl)benzoic acid], inhibition was half-maximal at 0.39 ± 0.03 µM (IC50) and the inhibition at 25 µM came to 97.4%.
